Assay results published in the supplement of paper PMC10307832.

Assays:
Experiment in all cases: relative viability (nuclei count vs DMSO), 5 days (fraction); higher = more cells survive
[1] = compound: CN(C/C=C/C1=CC=C(C=C1)Cl)CC2=CC=CC=C2N(CCO)S(=O)(=O)C3=CC=C(C=C3)OC [KN-93] + CC(=O)c1c(C)c2cnc(Nc3ccc(N4CCNCC4)cn3)nc2n(C2CCCC2)c1=O [Palbociclib] (partner 0.5 µM)
Summary of the method: (§1)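 Relative viability equals treated-well nuclei counts divided by vehicle-well nuclei counts. Counts came from 4× images of lung cancer cell lines grown in 1536-well plates for 5 days after pin-tool dosing on the day after seeding. Dosing used one drug alone or a fixed anchor-drug dose plus five library-drug doses (not always all listed) in √10 steps, and values are medians of duplicate plates.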

[2] = compound: CN(C/C=C/C1=CC=C(C=C1)Cl)CC2=CC=CC=C2N(CCO)S(=O)(=O)C3=CC=C(C=C3)OC [KN-93] + CC(C)C[C@H](NC(=O)[C@H](Cc1ccccc1)NC(=O)c1cnccn1)B(O)O [Bortezomib] (partner 0.002 µM)
Summary of the method: as §1

[3] = compound: CN(C/C=C/C1=CC=C(C=C1)Cl)CC2=CC=CC=C2N(CCO)S(=O)(=O)C3=CC=C(C=C3)OC [KN-93] + CS(=O)(=O)CCNCc1ccc(-c2ccc3ncnc(Nc4ccc(OCc5cccc(F)c5)c(Cl)c4)c3c2)o1 [Lapatinib] (partner 2 µM)
Summary of the method: as §1

[4] = compound: CN(C/C=C/C1=CC=C(C=C1)Cl)CC2=CC=CC=C2N(CCO)S(=O)(=O)C3=CC=C(C=C3)OC [KN-93] + CS(=O)(=O)N1CCN(Cc2cc3nc(-c4cccc5[nH]ncc45)nc(N4CCOCC4)c3s2)CC1 [Pictilisib] (partner 1 µM)
Summary of the method: as §1

[5] = compound: CN(C/C=C/C1=CC=C(C=C1)Cl)CC2=CC=CC=C2N(CCO)S(=O)(=O)C3=CC=C(C=C3)OC [KN-93] + Nc1nc2[nH]cc(CCc3ccc(C(=O)N[C@@H](CCC(=O)O)C(=O)O)cc3)c2c(=O)[nH]1 [Pemetrexed] (partner 0.2 µM)
Summary of the method: as §1

Row | Cell Line | relative viability ([1]; first compound 0.08 µM) | relative viability ([1]; first compound 0.253 µM) | relative viability ([1]; first compound 2.53 µM) | relative viability ([1]; first compound 8 µM) | relative viability ([2]; first compound 0.08 µM) | relative viability ([2]; first compound 0.253 µM) | relative viability ([2]; first compound 2.53 µM) | relative viability ([2]; first compound 8 µM) | relative viability ([3]; first compound 0.08 µM) | relative viability ([3]; first compound 0.253 µM) | relative viability ([3]; first compound 2.53 µM) | relative viability ([3]; first compound 8 µM) | relative viability ([4]; first compound 0.08 µM) | relative viability ([4]; first compound 0.253 µM) | relative viability ([4]; first compound 2.53 µM) | relative viability ([4]; first compound 8 µM) | relative viability ([5]; first compound 0.08 µM) | relative viability ([5]; first compound 0.253 µM) | relative viability ([5]; first compound 2.53 µM) | relative viability ([5]; first compound 8 µM)
1 | NCI-H2405 | 0.561 | 0.594 | 0.547 | 0.471 | 1.01 | 0.978 | 1.09 | 0.728 | 1.17 | 1.09 | 1.06 | 0.659 | 0.407 | 0.319 | 0.446 | 0.305 | 1.06 | 1.24 | 1.02 | 0.775
2 | NCI-H3122 | 0.127 | 0.181 | 0.229 | 0.184 | 1.06 | 1.07 | 1.13 | 1.03 | 1.09 | 1.01 | 1.12 | 0.978 | 0.622 | 0.708 | 0.639 | 0.627 | 0.199 | 0.194 | 0.19 | 0.341
3 | PC-3 [JPC-3] | 0.49 | 0.476 | 0.591 | 0.569 | 0.724 | 0.97 | 0.982 | 0.579 | 0.462 | 0.382 | 0.439 | 0.428 | 0.727 | 0.708 | 0.759 | 0.645 | 1.15 | 1.37 | 0.898 | 0.858
4 | PC-14 | 0.483 | 0.607 | 0.751 | 0.35 | 0.686 | 0.899 | 0.933 | 0.734 | 0.305 | 0.227 | 0.318 | 0.307 |  | 0.531 | 0.618 | 0.349 | 0.154 | 0.126 | 0.139 | 0.131
